From patent publication US5670479A, “α-ketoamide derivatives as inhibitors of thrombosis” (Corvas International, Inc., priority 1994, dated 1997)

Key:
[1] = tested on: Male Harlan Sprague Dawley rats; assay: Rat model of FeCl3-induced platelet-dependent arterial thrombosis; assay type: in vivo
Description: Kurz, K. D., Main, B. W., and Sandusky, G. E., Thromb. Res., 60: 269-280. (1990). In this model a platelet-rich, occlusive thrombus is formed in a segment of the rat carotid artery treated with a fresh solution of FeCl3 absorbed to a piece of filter paper. The FeCl3 is thought to diffuse into the treated segment of artery and causes de-endothelialization resulting in thrombus formation. The effect of a test compound on the incidence of occlusive thrombus formation following the application of the FeCl3 is monitored by ultrasonic flowtometry and is used as the primary end point. The use of flowtometry is a modification of the original procedure in which thermal detection of clot formation was employed. Kurz, K. D., Main, B. W., and Sandusky, G. E., Thromb. Res., 60: 269-280 (1990).
Male Harlan Sprague Dawley rats (420-450 g) were acclimated at least 72 hours prior to use and fasted for 12 hours prior to surgery with free access to water. The animals were prepared, anesthetized with Nembutal with catheters for blood pressure monitoring, drug and anesthesia delivery being implanted as described above. The left carotid artery was exposed and isolated by making a midline cervical incision followed by blunt dissection and spreading techniques to separate a 2 cm segment of the vessel from the carotid sheath. A silk suture is inserted under the proximal and distal ends of the isolated vessel to provide clearance for the placement of a ultrasonic flow probe (Transonic) around the proximal end of the vessel. The probe is then secured with a stationary arm.
The test compounds were administered as described above after placement of the flow probe and stabilization of the preparation for a period of 60 minutes prior to the thrombogenic stimulus. At t=0, a 3 mm diameter piece of filter paper (Whatman #3) soaked with […] of a 35% solution of fresh FeCl3 (in water) was applied the segment of isolated carotid artery distal to the flow probe. Blood pressure, blood flow, heart rate, and respiration were monitored for 60 minutes.
The incidence of occlusion (defined as the attainment of zero blood flow) was recorded as the primary end point. Following the 60 minute observation period the flow probe was removed and the area cleared of all excess fluid. The distal and proximal sutures were tied off and arterial clamps placed on the far proximal and distal ends of the segment. The isolated segment was cut out, blotted dry on filter paper and weighed. The segment was re-weighed following removal of the clot and the difference recorded as total % clot (see above). Weights were recorded on only those segments which had detectable thrombus. Following the procedure the animals were euthanized as described above.

thrombin = thrombin (Homo sapiens, UniProt P00734); details: reported in literature; cited from earlier work
baboons [2] = details: baboon, other direct antithrombins evaluated earlier in this model, cited from earlier work
a-thrombin [3] = target: T1, a-thrombin (Homo sapiens, UniProt P00734); assay: Inhibition of fluid-phase thrombin (FPA generation in citrated plasma); assay type: biochemical; design: Purified human a-thrombin; purchased Enzyme Research Laboratories, Inc; details: 60 min, 37° C., compound 8 18.75 nM, Hirulog-1 500 nM, rHIR 4 nM, FIG. 5A
Protocol: I. et.al. J. Clin. Invest., 86: 385-391 (1990). Human a-thrombin (2 U/ml) was incubated with citrated plasma for 60 minutes at 37° C. in the absence or presence of varying concentrations of each of the inhibitors. At timed intervals, 100 μl aliquots were removed and the reaction was terminated by the addition of […] (5 μM, final concentration). Unreacted fibrinogen was then precipitated with ethanol, and the ethanol supernatants were assayed for fibrinopeptide A (FPA). Thrombin addition to plasma results in rapid FPA generation which reaches a plateau in minutes as the thrombin is complexed and inactivated by fluid-phase antiproteases.(e.g. antithrombin III).

a-thrombin [4] = target: T1, a-thrombin; assay: Thrombin-induced clotting of purified fibrinogen; assay type: biochemical; details: preincubation with a-thrombin 0, 30, 60 minutes before fibrinogen
Protocol: The clotting time of fibrinogen following the addition of the thrombin/inhibitor complex was measured optically using the Coag-A-Mate XC automated coagulometer (General Diagnostics, Organon Technica, Oklahoma City, Okla.).
This inhibition is reflected as an increase in the relative clotting time which is the ratio of the […]. The control clotting time in this assay is 16.2±0.78 sec.

baboons [5] = details: baboon; dose which gives a 50% inhibition of platelet deposition; other direct antithrombins evaluated earlier in this model; cited from earlier work
[6] = Group 4: 0.1 mg/kg i.v. bolus + 40 mg/kg/min i.v. infusion

(D-Phe)-Pro-Arg-Pro-(Gly)4 -Asn-Gly-Asp-Phe-Glu-Glu-Ile-Pro-Glu-Glu-Tyr-Leu-OH [Hirulog-1]
Incidence of Occlusion ([1]; Group 1: 0.1 mg/kg i.v. bolus + 5 mg/kg/min i.v. infusion): 3/3
% Clot ([1]; Group 1: 0.1 mg/kg i.v. bolus + 5 mg/kg/min i.v. infusion, mean ± S.E.M., segments with detectable thrombus): 70.1 ± 5.5%
Incidence of Occlusion ([1]; Group 2: 0.1 mg/kg i.v. bolus + 10 mg/kg/min i.v. infusion): 5/6
% Clot ([1]; Group 2: 0.1 mg/kg i.v. bolus + 10 mg/kg/min i.v. infusion, mean ± S.E.M., segments with detectable thrombus): 59.42 ± 4.34%
Incidence of Occlusion ([1]; Group 3: 0.1 mg/kg i.v. bolus + 20 mg/kg/min i.v. infusion): 5/6
% Clot ([1]; Group 3: 0.1 mg/kg i.v. bolus + 20 mg/kg/min i.v. infusion, mean ± S.E.M., segments with detectable thrombus): 45.3 ± 11.63%
% Clot [1, 6]: 0%
Incidence of Occlusion [1, 6]: 0/6
Ki (thrombin): 2.56 nM
Antihemostatic Effects APTT (baboons [2]; control 32 sec): > 300 s
Antihemostatic Effects Bleeding Time (baboons [2]; control 4 min): 21 min
inhibition of fluid-phase a-thrombin-mediated FPA generation (a-thrombin [3]): only transient inhibition
proteolytic inactivation by thrombin on preincubation (a-thrombin [4]): sensitive to proteolytic degradation
Antithrombotic Effects ED50 (baboons [5]): 125 nmol/kg/min
